# Results reported in patent US20220257529A1, “USE OF C[…] THE TREATMENT OF […] SPASMS” (GW Research Limited, priority 2019, published 2022).
# Entries after “also recorded” stand apart in the source; their conditions may differ.
# How the values were obtained:
# epileptic spasms [1] = experiment: Treatment history of enrolled patients before CBD; assay type: in vivo, human; conditions: before initiation of CBD treatment
# epileptic spasms [2] = conditions: first-line treatment of epileptic spasms; cited from earlier work
# [3] = test system: other seizure types (tonic-clonic seizures); experiment: Open label, expanded-access program: other seizure types; assay type: in vivo, human
# Description: (§1) Patients were administered botanically derived purified CBD in a 100 mg/mL sesame oil-based solution at an initial dose of five milligrams per kilogram per day (mg/kg/day) in two divided doses. Dose was then increased weekly by 5 mg/kg/day to a goal of 25 mg/kg/day.
# (§2) Seizure frequency, intensity, and duration were recorded by caregivers in a diary during a baseline period of at least 28 days. Changes in seizure frequency relative to baseline were calculated after 2 weeks and 1, 2, 3, 4, 6, 9 and 12 months of treatment. Epileptic spasms were counted by clusters.
# [4] = test system: refractory epileptic spasms (ES); experiment: Open label, expanded-access program: epileptic spasm frequency relative to baseline (caregiver diary); assay type: in vivo, human; conditions: for Percent Change in Spasm Frequency, Average: average of nine patients; for Percent Change in Spasm Frequency at CBD dose, Average: average of patients
# Description: Subjects were required to be on one or more AEDs at stable doses for a minimum of two weeks prior to baseline and to have stable vagus nerve stimulation (VNS) settings and ketogenic diet ratios for a minimum of four weeks prior to baseline.
# as §1
# (§3) A maximum dose of 50 mg/kg/day could be utilised for patients who were tolerating the medication but had not achieved seizure control; these patients had further weekly titration by 5 mg/kg/day.
# There were nine patients in this study, and each received CBD for at least 12 months. Modifications were made to concomitant AEDs as per clinical indication.
# as §2
# Patients were defined as responders if they had more than 50% reduction in seizure frequency compared to baseline. […] The percent change in seizure frequency was calculated as follows: […]
# The percent change reported at each time interval reflects reported seizure frequency over the past month relative to baseline. The EEG findings were correlated to the corresponding month seizure frequency change as well as the baseline seizure frequency.
# [5] = Open label, expanded-access program: caregiver logs of cognitive changes, behavioural changes and adverse events; assay type: in vivo, human
# Description: as §1, §3
# During subsequent follow-up visits, parents provided weekly logs regarding cognitive changes, behavioural changes, and adverse events while taking CBD. Additionally, subjects had electroencephalogram (EEG) testing prior to and after the initiation of CBD.
compound,measurement,setting,value
"Adrenocorticotropin hormone (SYSMEHFRWGKPVGKKRRPVKVYPNGAEDESAEAFPLEF; Corticotropin; UniProt P01189 138-176, looked up) [ACTH, preferred first-line treatment of epileptic spasms]",outcome of treatment before CBD,epileptic spasms [1],without significant benefit
same,significant risks,epileptic spasms [2],increased risk of infection
"C=CC(N)CCC(=O)O (stereo not shown) [VGB, vigabatrin]",outcome of treatment before CBD,epileptic spasms [1],lack of efficacy
same,significant risks,epileptic spasms [2],visual field defects
"C=C(C)[C@@H]1CCC(C)=C[C@H]1c1c(O)cc(CCCCC)cc1O [CBD, cannabidiol]",freedom from tonic-clonic seizures,[3]; after starting CBD treatment,one patient became seizure free of tonic-clonic seizures
same,frequency of other seizure types,[3]; other seizure types experienced by the patients,effective in reducing the frequency of other seizure types
same,Responder rate at CBD dose,[4]; 10 mg/kg/day,66.70%
same,Responder rate at CBD dose,[4]; 20 mg/kg/day,77.80%
same,Responder rate at CBD dose,[4]; 25 mg/kg/day,66.70%
same,Responder rate at CBD dose,[4]; 35 mg/kg/day,57.10%
same,Responder rate at CBD dose,[4]; 45 mg/kg/day,80.00%
same,Responder rate at CBD dose,[4]; 50 mg/kg/day,83.30%
same,Responder Rate (percent of patients with a greater than 50% reduction in spasm frequency),[4]; 1 month of treatment,77.8%
same,Responder Rate (percent of patients with a greater than 50% reduction in spasm frequency),[4]; 2 months of treatment,66.7%
same,Responder Rate (percent of patients with a greater than 50% reduction in spasm frequency),[4]; 2 weeks of treatment,66.7%
same,Responder Rate (percent of patients with a greater than 50% reduction in spasm frequency),[4]; 3 months of treatment,55.6%
same,Responder Rate (percent of patients with a greater than 50% reduction in spasm frequency),[4]; 6 months of treatment,77.8%
same,Responder Rate (percent of patients with a greater than 50% reduction in spasm frequency),[4]; 9 months of treatment,77.8%
same,Responder Rate (percent of patients with a greater than 50% reduction in spasm frequency),[4]; 12 months of treatment,77.8%
same,patients spasm-free,"[4]; after 12 months of treatment, five of nine patients",55.6%
same,patients epileptic spasm-free,[4]; after one month of CBD treatment,One patient was epileptic spasm-free
same,patients epileptic spasm-free,[4]; after two months of CBD treatment,two other patients were epileptic spasm-free
same,"Percent Change in Spasm Frequency, Average",[4]; 1 month,−67.20%
same,"Percent Change in Spasm Frequency, Average",[4]; 2 months,−64.10%
same,"Percent Change in Spasm Frequency, Average",[4]; 2 weeks,−67.50%
same,"Percent Change in Spasm Frequency, Average",[4]; 3 months,−59.00%
same,"Percent Change in Spasm Frequency, Average",[4]; 6 months,−73.70%
same,"Percent Change in Spasm Frequency, Average",[4]; 9 months,−61.53%
same,"Percent Change in Spasm Frequency, Average",[4]; 12 months,−51.35%
same,"Percent Change in Spasm Frequency at CBD dose, Average",[4]; 10 mg/kg/day,−67.50%
same,"Percent Change in Spasm Frequency at CBD dose, Average",[4]; 20 mg/kg/day,−67.20%
same,"Percent Change in Spasm Frequency at CBD dose, Average",[4]; 25 mg/kg/day,−61.40%
same,"Percent Change in Spasm Frequency at CBD dose, Average",[4]; 35 mg/kg/day,−56.00%
same,"Percent Change in Spasm Frequency at CBD dose, Average",[4]; 45 mg/kg/day,−80.90%
same,"Percent Change in Spasm Frequency at CBD dose, Average",[4]; 50 mg/kg/day,−50.20%
same,effect on number of epileptic spasms (in words),"[4]; overall conclusion of the program, adjunctive to AEDs",significantly reduce the number of epileptic spasms; also recorded: significant reduction in epileptic spasms
same,seizure freedom in patients suffering from TSC,"[4]; patients 6, 7 and 8, after 12 months of treatment",all three were completely seizure free
same,"patients with caregiver-reported sustained improvements in alertness, verbal capacity and communications, cognitive availability, initiation of emotional and physical connections",[5]; four of nine patients,44%
same,adverse event leading to dose reduction,"[5]; patients 3 and 6 at 45 mg/kg/day and 50 mg/kg/day, reduced to 35 mg/kg/day",diarrhoea
same,improvement in cognitive and behavioural domains (in words),[5]; treatment group of the program,significant improvement in cognitive and behavioural domains
